Entries after “also recorded” stand apart in the source; their conditions may differ. Where a SMILES comes first, the peptide text is derived from it. Where no end group is shown, it is not given here. [ ]: non-standard residue; d: D form. ξ: configuration not given here. ξHyp = O=C(O)C1CC(O)CN1
Experiments:
[1] = test system: FGF2-induced angiogenesis in the chorioallantoic membrane (CAM); experiment: FGF2-induced neovascularization on the chick chorioallantoic membrane (CAM), branch point count; format: in vivo; settings: for % Inhibition of branch point formation: 16 μg, FGF2-stimulated CAM; for Average # of Branch Points: FGF2 filter disk on CAM, peptide 16 μg topically, 48 h
Protocol: In vivo neovascularization was examined by the method previously described by Auerbach et al. (J. Dev. Biol. 41:391-394 (1974)). Ten-day old embryos were purchased from Spafas, Inc. (Preston, Conn.) and were incubated at 37° C. with 55% relative humidity. In the dark with the help of a candling lamp a small hole was punctured in the shell concealing the air sac with a hypodermic needle. A second hole was punctured in the shell on the broadside of the egg directly over an […] portion of the embryonic membrane, as observed during candling. A false air sac was created beneath the second hole by the application of negative pressure to the first hole, which caused the chorioallantoic membrane (CAM) to separate from the shell. A window, approximately 1.0 cm^2, was cut in the shell over the dropped CAM with the use of a small crafts grinding wheel (Dremel, Division of Emerson Electric Company Racine, WI) which allowed direct access to the underlying CAM. Filter disks of #1 filter paper (Whatman International, United Kingdom) were soaked in 3 mg/mL cortisone acetate (Sigma, St. Louis, Mo.) in a solution of 95% ethanol and water and subsequently air dried under sterile conditions. FGF2 (Life Technologies, Gaithersburg, Md.) was used to grow vessels on the CAMs of 10-d old chick embryos. Sterile filter disks adsorbed with FGF2 dissolved in PBS at 1 μg/mL were placed on growing CAMs. At 24 h, test compounds or control vehicle was added directly to CAMs topically.
CAM tissue directly beneath FGF2-saturated filter disk was resected from embryos treated 48 h prior with compound or control. Tissues were washed three times with PBS. Sections were placed in a 35-mm petri dish (Nalge Nunc, Rochester, N.Y.) and examined under a SV6 stereomicroscope (Karl Zeiss, Thornwood, N.Y.) at 50× magnification. Digital images of CAM sections adjacent to filters were collected using a 3-CCD color video camera system (Toshiba America, New York, N.Y.) and analyzed with the Image-Pro Plus software (Media Cybernetics, Silver Spring, Md.) and can be seen in FIG. 2. Table 3 contains the number of vessel branch points contained in a circular region equal to the area of a filter disk counted for each section. Percent inhibition data is expressed as the quotient of the experimental value minus the negative control value divided by the difference between the positive control value and the negative control value.

[2] = test system: Human umbilical vein endothelial cells (HUVEC); experiment: FGF2-stimulated endothelial cell tube formation on Matrigel matrix; format: cell-based; settings: for Inhibition of FGF2-stimulated EC tube formation, in words: in vitro, qualitative ranking; for Cell Tube Formation (area) / Cell Tube Formation (length): HUVEC on Matrigel, FGF2 100 ng/mL, peptide 0.015 μmol added with FGF2, overnight; for Cell Tube Formation (length): length/area; for % inhibition cell tube formation (area) / % inhibition cell tube formation (length): peptide 0.015 μmol, FGF2-stimulated HUVEC
Protocol: Differentiation by endothelial cells was examined using a method developed by Grant et al. (In Vitro Cell Dev. Biol. 27A:327-336 (1991)). Matrigel® matrix, phenol-red free (commercially available from Becton Dickinson, Bedford, Mass.) was thawed overnight at 4° C. Using cold pipette tips, 3.0 mg/well of Matrigel® matrix was placed in a cold twenty-four-multiwell plate (Falcon). Matrigel® matrix was allowed to polymerize during incubation at 37° C. for 30 min. Human umbilical vein endothelial cells (HUVEC) were maintained at 37° C. with 5% CO2 and 95% humidity in endothelial cell growth medium with 2% fetal bovine serum (EGM). Tube assay was performed in endothelial cell basal medium (EBM) supplemented with 0.5% bovine serum albumin (BSA) and 1:100 diluted Insulin-Transferrin-Selenium-G supplement (I-T-Se, 100×). HUVEC were trypsinized and centrifuged and subsequently, washed twice in phosphate buffered saline (PBS). After counting, cell density was adjusted to 35,000 cells/mL. At final concentration of 35,000 cells/mL/well were treated with recombinant human fibroblast growth factor basic (FGF2) at 100 ng/mL and peptides (see below) dissolved in EBM medium at to a concentration of 0.015 μmol. Treated cells were incubated overnight at 37° C. with 5% CO2 and 95% humidity to allow cell attachment. Subsequently, the medium was aspirated and cells were fixed and stained using a modified HEMA-3 stain kit. Digital images of microtiter well sections were collected using a DKC5000 3-CCD color video camera system (Toshiba America, New York, N.Y.) and analyzed with the Image-Pro Plus software (Media Cybernetics, Silver Spring, Md.). The area and major axis length of stained cells having a tubular morphology on the Matrigel® matrix surface (Becton Dickinson, Bedford, Pa.) counted from 5 images/well.

[3] = test system: TSU-Pr (human prostrate) tumor; settings: 45 μg, after 7 d
Protocol: Ten million tumor cells were placed on the surface of each CAM (7-d old embryo) and were cultured for one week. The resulting tumors were excised and cut into 50 mg fragments. […] Each treatment group incorporated at least ten tumors per experiment. Representative tumors were photographed at 10× magnification. Tumors were then excised from the egg and tumor weights were determined for each tumor. Data is presented as mean tumor weight per treatment group (±standard error of the mean). Statistical analysis was performed using Student's t-test.

[4] = test system: human melanoma cells; settings: cited from earlier work
[5] = test system: human melanoma cells; settings: cited from earlier work; remark: listed apart in the source

Compound	% Inhibition of Branch Points in FGF2-Induced CAM Assay ([1]; 1 μg/CAM)	% Inhibition of Branch Points in FGF2-Induced CAM Assay ([1]; 5 μg/CAM)	% Inhibition of Branch Points in FGF2-Induced CAM Assay ([1]; 15 μg/CAM)	Inhibition of FGF2-stimulated EC tube formation, in words [2]	% inhibition cell tube formation (area) [2]	% inhibition cell tube formation (length) [2]	further results
CC(=O)N[C@@H](CO)C(=O)N[C@@H](CC(N)=O)C(=O)N1CC(O)CC1C(N)=O (stereo partly drawn) [SN-t4Hyp] (Ac-Ser-Asn-[ξHyp]-NH2)	39% +/− 11	60% +/− 7	71% +/− 8	most potent	–	–	–
CC(=O)N[C@@H](CO)C(=O)N[C@@H](CC(N)=O)C(=O)N[C@H](CO)C(N)=O [SNs] (Ac-Ser-Asn-[dS]-NH2)	62% +/− 7	78% +/− 6	69% +/− 8	most potent	–	–	–
CC(=O)NC(CO)C(=O)NC(CC(N)=O)C(=O)NC(CO)C(N)=O (stereo not drawn) [acetyl-SNS-carboxamide, acetyl-Ser-Asn-Ser-carboxamide] (Ac-Ser-Asn-Ser-NH2; configuration not given here)	–	–	–	very potent inhibitor; also recorded: more potent inhibitor	97% +/− 8	84% +/− 9	% Inhibition of branch point formation [1]: 100.23%; % Inhibition of branch point formation ([1]; listed as acetyl-Ser-Asn-Ser-carboxamide): 100%; Average # of Branch Points [1]: 91.60; % ave inhibition of TSU-Pr tumor growth (weight) ([3]; injected into tumors): 111%; Tumors showing significant weight shrinkage ([3]; ten tumors injected): Six tumors out of the ten; Cell Tube Formation (area) [2]: 1.1011 +/− 0.12 10^4 square microns; Cell Tube Formation (length) [2]: 47.5267 +/− 4.31 mm/mm^2
CNYYSNSYSFWLASLNPER [SEQ ID NO:1, peptide of residues 185-203 of the NC1 domain of the α3-chain of collagen type IV]	–	–	–	–	–	–	Promotion of adhesion of human melanoma cells over controls [4]: 50-60%; Inhibition of proliferation of human melanoma cells [5]: 40%
FGF2: recombinant human fibroblast growth factor basic, angiogenic stimulus [reference compound]	–	–	–	–	–	–	Average # of Branch Points [1]: 263.88; Cell Tube Formation (area) [2]: 2.2501 +/− 0.28 10^4 square microns; Cell Tube Formation (length) [2]: 79.8272 +/− 8.66 mm/mm^2
Ser-Gln-Ser [SQS]	101% +/− 7	121% +/− 6	82% +/− 7	most potent	–	–	–
acetyl-Cys-Asn-Tyr-Tyr-Ser-Asn-Ser-Tyr-Ser-Phe-Trp-Leu (Ac-CNYYSNSYSFWL) [SEQ ID NO: 4, As defined in b173]	–	–	–	–	71% +/− 6	54% +/− 3	–
acetyl-Ser-Asn-Ser-Tyr-Ser-Phe-Trp-Leu (Ac-SNSYSFWL) [SEQ ID NO: 3, As defined in b173]	–	–	–	–	75% +/− 7	65% +/− 3	–

Reference: US6815426B2, “Angiogenesis-inhibitory tripeptides, compositions and their methods of use” (E. I. du Pont de Nemours and Company, priority 2001, dated 2004)
